# Experimental data published in ChEMBL document CHEMBL4145597, “BMS-986163, a Negative Allosteric Modulator of GluN2B with Potential Utility in Major Depressive Disorder” (ACS Med Chem Lett, 2018).
# Active and inactive are the calls of the source. The calls are words filed in the database; no cut-off is given here.
# Tests used:
# [1] = target: Glutamate receptor ionotropic, NMDA 2D (Homo sapiens) (UniProt O15399); assay: Negative allosteric modulation of human GluN2D receptor expressed in Xenopus laevis oocytes assessed as inhibition of glutamate/glycine-induced channel current at 3 uM after 10 to 15 mins by two electrode voltage clamp based electrophysiology assay; type: cell-based
# [2] = target: Glutamate receptor ionotropic, NMDA 2B (Homo sapiens, UniProt Q13224); assay: Negative allosteric modulation of human GluN2B receptor expressed in Xenopus laevis oocytes assessed as inhibition of glutamate/glycine-induced channel current after 15 to 20 mins by two electrode voltage clamp based electrophysiology assay; type: cell-based
# [3] = target: Glutamate receptor ionotropic, NMDA 2A (Homo sapiens) (UniProt Q12879); assay: Negative allosteric modulation of human GluN2A receptor expressed in Xenopus laevis oocytes assessed as inhibition of glutamate/glycine-induced channel current at 3 uM after 10 to 15 mins by two electrode voltage clamp based electrophysiology assay; type: cell-based
# [4] = target: Glutamate receptor ionotropic, NMDA 2C (Homo sapiens) (UniProt Q14957); assay: Negative allosteric modulation of human GluN2C receptor expressed in Xenopus laevis oocytes assessed as inhibition of glutamate/glycine-induced channel current at 3 uM after 10 to 15 mins by two electrode voltage clamp based electrophysiology assay; type: cell-based
# [5] = target: Voltage-gated inwardly rectifying potassium channel KCNH2 (Homo sapiens, UniProt Q12809); assay: Inhibition of human ERG expressed in HEK293 cells assessed as reduction in peak tail current after 2 to 5 mins by patch clamp based electrophysiology assay; type: cell-based
# [6] = test system: Mus musculus; assay: Ex vivo receptor occupancy at GluN2B receptor in CD-1 mouse forebrain membranes assessed as reduction in [3H]Ro 25-6981 receptor labeling at 1 mg/kg, iv incubated for 5 mins by topcount micro scintillation counting method; type: functional
# [7] = Plasma concentration in CD-1 mouse at 0.1 to 1 mg/kg, iv; type: ADME, organism-based; details: in vivo
# Glutamate receptor ionotropic, NMDA 2A (Homo sapiens), sequence (Q12879 23-1464 limits assumed): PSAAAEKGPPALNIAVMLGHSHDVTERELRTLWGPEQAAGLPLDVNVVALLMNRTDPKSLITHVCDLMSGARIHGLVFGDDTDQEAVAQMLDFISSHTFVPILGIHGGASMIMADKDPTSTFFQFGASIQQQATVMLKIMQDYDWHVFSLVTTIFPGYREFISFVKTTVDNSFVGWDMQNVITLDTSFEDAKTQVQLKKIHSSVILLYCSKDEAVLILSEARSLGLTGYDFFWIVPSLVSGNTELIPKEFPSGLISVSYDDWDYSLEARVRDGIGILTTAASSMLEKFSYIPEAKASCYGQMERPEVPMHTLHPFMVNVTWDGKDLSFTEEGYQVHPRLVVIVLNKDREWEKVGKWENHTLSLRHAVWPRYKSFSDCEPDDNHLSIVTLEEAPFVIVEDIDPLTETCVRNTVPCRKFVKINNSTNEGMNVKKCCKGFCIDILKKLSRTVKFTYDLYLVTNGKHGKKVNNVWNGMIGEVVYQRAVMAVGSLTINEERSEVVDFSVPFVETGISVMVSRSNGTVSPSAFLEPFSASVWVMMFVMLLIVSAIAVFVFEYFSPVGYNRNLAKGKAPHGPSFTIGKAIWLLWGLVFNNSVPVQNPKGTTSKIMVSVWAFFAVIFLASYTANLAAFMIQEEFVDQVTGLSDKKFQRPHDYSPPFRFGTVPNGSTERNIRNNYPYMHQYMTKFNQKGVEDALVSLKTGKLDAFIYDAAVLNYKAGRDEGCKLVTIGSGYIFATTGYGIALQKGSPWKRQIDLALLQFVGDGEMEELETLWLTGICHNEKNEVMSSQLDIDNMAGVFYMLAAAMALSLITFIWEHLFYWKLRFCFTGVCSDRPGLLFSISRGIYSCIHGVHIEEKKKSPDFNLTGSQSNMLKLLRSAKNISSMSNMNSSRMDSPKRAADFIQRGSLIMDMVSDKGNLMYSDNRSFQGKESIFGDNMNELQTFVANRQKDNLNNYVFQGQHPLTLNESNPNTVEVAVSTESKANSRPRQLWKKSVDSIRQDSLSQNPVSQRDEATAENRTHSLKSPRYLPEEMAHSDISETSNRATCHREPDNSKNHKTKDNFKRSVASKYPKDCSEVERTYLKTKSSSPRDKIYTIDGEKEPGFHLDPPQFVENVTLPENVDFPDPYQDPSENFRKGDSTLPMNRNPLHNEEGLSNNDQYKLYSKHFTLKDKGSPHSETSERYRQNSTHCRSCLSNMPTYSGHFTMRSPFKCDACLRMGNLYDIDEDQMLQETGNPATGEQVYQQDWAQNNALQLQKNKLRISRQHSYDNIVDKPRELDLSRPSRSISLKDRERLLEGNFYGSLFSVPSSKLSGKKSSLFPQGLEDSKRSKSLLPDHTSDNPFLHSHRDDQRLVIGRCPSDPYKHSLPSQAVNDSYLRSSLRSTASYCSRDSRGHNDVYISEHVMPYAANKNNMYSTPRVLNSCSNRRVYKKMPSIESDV
# Glutamate receptor ionotropic, NMDA 2B, sequence (Q13224 27-1484 limits assumed): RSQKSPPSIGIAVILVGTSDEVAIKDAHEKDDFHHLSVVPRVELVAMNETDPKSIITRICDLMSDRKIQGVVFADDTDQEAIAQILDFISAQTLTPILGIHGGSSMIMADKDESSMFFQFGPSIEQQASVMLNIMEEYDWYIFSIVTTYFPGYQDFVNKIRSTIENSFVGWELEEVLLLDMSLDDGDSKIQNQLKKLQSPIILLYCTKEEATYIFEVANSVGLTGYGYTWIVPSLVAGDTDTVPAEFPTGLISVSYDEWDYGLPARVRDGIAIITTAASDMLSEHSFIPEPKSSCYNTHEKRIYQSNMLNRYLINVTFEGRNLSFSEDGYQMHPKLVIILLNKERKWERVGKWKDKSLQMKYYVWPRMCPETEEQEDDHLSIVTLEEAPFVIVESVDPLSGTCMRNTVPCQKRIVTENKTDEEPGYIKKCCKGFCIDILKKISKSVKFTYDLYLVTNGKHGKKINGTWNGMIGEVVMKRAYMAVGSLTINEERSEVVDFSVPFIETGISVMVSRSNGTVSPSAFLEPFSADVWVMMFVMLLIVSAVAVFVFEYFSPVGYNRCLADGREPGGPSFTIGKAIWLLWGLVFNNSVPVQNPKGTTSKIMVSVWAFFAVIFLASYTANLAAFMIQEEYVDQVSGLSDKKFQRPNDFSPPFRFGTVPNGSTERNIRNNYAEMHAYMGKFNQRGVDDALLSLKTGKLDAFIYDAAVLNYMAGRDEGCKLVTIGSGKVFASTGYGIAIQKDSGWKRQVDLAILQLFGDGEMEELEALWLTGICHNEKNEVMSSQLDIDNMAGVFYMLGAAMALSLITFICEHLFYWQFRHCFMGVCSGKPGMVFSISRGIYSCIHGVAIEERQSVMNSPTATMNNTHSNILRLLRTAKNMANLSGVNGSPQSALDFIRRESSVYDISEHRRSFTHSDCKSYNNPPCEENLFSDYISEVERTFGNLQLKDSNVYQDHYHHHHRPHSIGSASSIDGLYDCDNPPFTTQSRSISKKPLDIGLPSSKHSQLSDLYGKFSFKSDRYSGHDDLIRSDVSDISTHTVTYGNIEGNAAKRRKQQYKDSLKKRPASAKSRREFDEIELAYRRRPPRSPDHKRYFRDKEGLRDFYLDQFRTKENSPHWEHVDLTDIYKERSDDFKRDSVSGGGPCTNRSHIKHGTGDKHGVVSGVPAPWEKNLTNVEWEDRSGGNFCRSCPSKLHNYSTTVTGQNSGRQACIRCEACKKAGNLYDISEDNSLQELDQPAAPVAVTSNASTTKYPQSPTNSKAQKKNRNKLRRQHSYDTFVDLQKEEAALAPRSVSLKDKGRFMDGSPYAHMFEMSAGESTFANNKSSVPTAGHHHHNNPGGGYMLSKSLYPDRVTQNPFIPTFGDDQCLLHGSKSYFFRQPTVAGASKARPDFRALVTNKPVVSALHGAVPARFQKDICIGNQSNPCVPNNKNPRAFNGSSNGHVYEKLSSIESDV
# Voltage-gated inwardly rectifying potassium channel KCNH2, sequence (Q12809 whole entry): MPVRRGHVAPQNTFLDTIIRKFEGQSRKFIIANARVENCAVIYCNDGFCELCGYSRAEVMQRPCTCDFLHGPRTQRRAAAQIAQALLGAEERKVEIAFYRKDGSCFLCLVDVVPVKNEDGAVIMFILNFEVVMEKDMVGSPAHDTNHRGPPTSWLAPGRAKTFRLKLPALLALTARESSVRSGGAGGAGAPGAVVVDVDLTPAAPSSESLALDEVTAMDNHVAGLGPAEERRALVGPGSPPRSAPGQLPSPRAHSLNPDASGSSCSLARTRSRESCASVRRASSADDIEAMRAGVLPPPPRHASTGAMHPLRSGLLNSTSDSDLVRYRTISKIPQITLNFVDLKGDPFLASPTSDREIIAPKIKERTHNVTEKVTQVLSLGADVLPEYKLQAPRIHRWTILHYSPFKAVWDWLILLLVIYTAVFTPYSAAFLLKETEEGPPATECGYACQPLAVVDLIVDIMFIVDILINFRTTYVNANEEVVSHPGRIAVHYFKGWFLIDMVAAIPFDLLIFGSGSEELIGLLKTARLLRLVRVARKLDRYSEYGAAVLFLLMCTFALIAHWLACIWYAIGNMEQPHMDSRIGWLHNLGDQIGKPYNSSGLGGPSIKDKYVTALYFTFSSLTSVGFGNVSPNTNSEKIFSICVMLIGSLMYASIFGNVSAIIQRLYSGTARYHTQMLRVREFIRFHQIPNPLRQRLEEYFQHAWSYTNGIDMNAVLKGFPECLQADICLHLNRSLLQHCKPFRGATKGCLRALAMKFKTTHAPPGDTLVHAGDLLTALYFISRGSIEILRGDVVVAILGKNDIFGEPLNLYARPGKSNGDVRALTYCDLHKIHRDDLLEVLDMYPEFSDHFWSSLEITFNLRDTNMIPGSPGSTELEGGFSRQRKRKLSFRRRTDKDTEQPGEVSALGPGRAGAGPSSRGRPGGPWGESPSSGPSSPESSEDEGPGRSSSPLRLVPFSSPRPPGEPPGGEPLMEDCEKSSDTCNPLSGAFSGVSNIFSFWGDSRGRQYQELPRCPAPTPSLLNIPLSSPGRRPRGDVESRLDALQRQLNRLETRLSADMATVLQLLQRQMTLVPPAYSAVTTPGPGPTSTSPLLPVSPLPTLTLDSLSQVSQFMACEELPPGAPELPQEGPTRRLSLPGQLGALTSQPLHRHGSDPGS
SMILES,inhibition [1],inhibition [2],inhibition [3],inhibition [4],IC50 [5],Occ [6],concentration [7]
O=C(O)c1ccc(CN2CC[C@@H](N3CC[C@@H](c4ccc(O)cc4)[C@H](F)C3)C2=O)cc1,inactive,inactive,inactive,inactive,–,–,–
Cc1ccc(CN2CC[C@@H](N3CCC(c4ccc(O)cc4)CC3)C2=O)cc1,–,–,–,–,400 nM,92%,220 nM
